Source: US12673065B2, “Anti-inflammatory composition and method of treatment” (KUWAIT UNIVERSITY, priority 2020, dated 2026)

Tests used:
[1] = system: HDM-challenged BALB/c mice; experiment: HDM-induced total and differential cell influx in BAL fluid; type: in vivo; conditions: synergy study, OBE 30 mg/kg i.p., dexamethasone 0.5 mg/kg i.p., alone or combined, mean±SEM
Experimental: (§1) Male BALB/c mice (6-8 weeks old, average weight 25 g) were used in this study. All studies involving animals were in accordance with the ARRIVE guidelines for reporting experiments involving animals. All experimental protocols were approved by the Animal Welfare and Use of Laboratory Animals Committee in the Health Sciences Center, Kuwait University and were carried out in accordance with the EU Directive 2010/63/EU for animal experiments and the National Institutes of Health guide for the care and use of Laboratory animals (NIH Publications No. 8023, revised 1978). Animals were maintained under temperature-controlled conditions with an artificial 12-hour light/dark cycle and were allowed standard chow and water ad libitum.
(§2) Seven treatment groups (A-G, 9-15 animals per group) were established to determine whether OBE, if given prophylactically, inhibits the HDM-induced asthma phenotype. […]
(§3) Twenty-four hours after the last intranasal challenge, half of the animals were sacrificed with an overdose of halothane, bronchoalveolar lavage (BAL) was performed to obtain BAL fluid, and then the lungs were excised in preparation for histology, Western Blot (WB) and immunofluorescence (IF) studies. […] In the other half of the animals, airway responsiveness was measured.

[2] = system: HDM-challenged BALB/c mice; experiment: Lung histology scoring (H&E and PAS) after HDM challenge; type: in vivo; conditions: synergy study, OBE 30 mg/kg, dexamethasone 0.5 mg/kg, alone or combined, score 1-5
Experimental: as §1, §2, §3

pERK1/2 (Thr202/Tyr204) = experiment: Immunofluorescence of lung sections, phosphorylation of ERK1/2; type: in vivo, mice; conditions: synergy study; OBE 30 mg/kg, dexamethasone 0.5 mg/kg, alone or combined; HDM 319.0±10.4
Experimental: Lung tissues were processed as described above. Immunofluorescence was performed as previously described in the literature. In short, lung sections were incubated in a blocking solution (5% bovine serum albumin (BSA)+0.3% Triton X-100 in PBS) for 1 hour, and were subsequently incubated overnight at 4° C. with primary antibodies [p-EGFR (Tyr1068) (Rabbit; Cat. No. 3777S), pAKT (Ser 473) (Rabbit; Cat. No. 9271L) and pERK1/2 (Thr202/Tyr204) (Rabbit; Cat. No. 9101L) (1:25-1:800 dilution) or only 1% BSA (for negative control); Cell Signaling, USA], diluted in 1% blocking solution. Twenty-four hours later, the sections were washed and incubated with secondary antibody conjugated to Alexa Fluor 555 (Goat anti rabbit SFX kit; Life Technologies, USA, 1:400 dilution) for 2 hours at room temperature in the dark. Following several washes in PBS, the sections were stained with 4′,6-diamidino-2-phenylindole and mounted. Images were then captured on a ZEISS LSM 700 confocal microscope, and fluorescence intensity was estimated in defined fields using an Image J software package. […]
All numerical values were expressed as means±SEM. […] For the histopathological assessment, a semi-quantitative 5-level lung pathology score was used to grade the degree of inflammation in each microscopic field at 20×. All data were initially assessed for normality. […]

[3] = system: HDM-challenged BALB/c mice; experiment: HDM-induced airway hyperresponsiveness to methacholine (lung resistance); type: in vivo; conditions: dexamethasone 3 mg/kg; 50 mg/ml of methacholine; HDM/vehicle 7.9±0.5
Experimental: Airway responsiveness was measured 24 h after the last HDM or PBS challenge, using a separate set of animals using the Buxco FinePointe series RC site (DSI, Wilmington, NC) as described previously in the literature. Briefly, mice were anesthetized with an intraperitoneal injection of ketamine/xylazine ([…]) cocktail and tracheotomized with a steel 18-gauge cannula. Mice were then mechanically ventilated at a rate of 150 breaths/minute and a tidal volume of 0.15 ml using a computerized small animal ventilator (FinePointe site). Following a 5 min period of stabilization and administration of PBS, airway resistance was measured by exposing mice to aerosolized methacholine (6.25-50.0 mg/ml, 5 μl per delivery) delivered by an aerogen nebulizer and reported as total lung resistance (RL) (cm H2O per ml/sec).
All numerical values were expressed as means±SEM. Total cell counts represent the number of cells/ml of BAL fluid. Differential cell counts represent the absolute number of each cell type/ml of BAL fluid. Absolute RL values were computed and were used as an index of airway responsiveness. For the histopathological assessment, a semi-quantitative 5-level lung pathology score was used to grade the degree of inflammation in each microscopic field at 20×. All data were initially assessed for normality. […]

C[C@@H]1C[C@H]2[C@@H]3CCC4=CC(=O)C=C[C@]4(C)[C@@]3(F)[C@@H](O)C[C@]2(C)[C@@]1(O)C(=O)CO [dexamethasone]
eosinophils in BAL fluid ([1]; HDM/vehicle 3.7±0.3): 1.3±0.1 ×10^5
total cell count in BAL fluid ([1]; HDM/vehicle 6.4±0.5): 4.3±0.2 ×10^5
mucous intensity score ([2]; HDM 4.2±0.2): 3.0±0.2
cellular infiltration score ([2]; HDM 4.5±0.2): 3.1±0.3
HDM-induced phosphorylation of ERK1/2 (pERK1/2 levels) (pERK1/2 (Thr202/Tyr204)): 264.8±4.9%
lung resistance (RL) [3]: 5.2±0.8 cm H2O per ml/sec
